Laboratory results reported in patent publication US11198713B2, “Agents modulating beta-catenin functions and methods thereof” (FOG PHARMACEUTICALS, INC., priority 2017, dated 2021).
In brackets after ≈: the same amount, converted by molar mass. Where two headings read alike, the source gives them in different places. Numbered stars: 1 amine (or outer) side, 2 acyl side, 3 side chain; on linkers, the order of the positions; unused ones are H or OH. Bridge positions count the residues as written; N and C are the ends. Square brackets hold non-standard residues; d marks the D form. R6 = (R)-2-(5-hexenyl)alanine, C=CCCCC[C@@](C)(N[*:1])C(=O)[*:2]; MA = Monomer A (Az), N-Alloc azetidine stapling residue

T1: biotinylated beta-catenin (Homo sapiens, UniProt P35222)
T1 sequence (P35222 1-781): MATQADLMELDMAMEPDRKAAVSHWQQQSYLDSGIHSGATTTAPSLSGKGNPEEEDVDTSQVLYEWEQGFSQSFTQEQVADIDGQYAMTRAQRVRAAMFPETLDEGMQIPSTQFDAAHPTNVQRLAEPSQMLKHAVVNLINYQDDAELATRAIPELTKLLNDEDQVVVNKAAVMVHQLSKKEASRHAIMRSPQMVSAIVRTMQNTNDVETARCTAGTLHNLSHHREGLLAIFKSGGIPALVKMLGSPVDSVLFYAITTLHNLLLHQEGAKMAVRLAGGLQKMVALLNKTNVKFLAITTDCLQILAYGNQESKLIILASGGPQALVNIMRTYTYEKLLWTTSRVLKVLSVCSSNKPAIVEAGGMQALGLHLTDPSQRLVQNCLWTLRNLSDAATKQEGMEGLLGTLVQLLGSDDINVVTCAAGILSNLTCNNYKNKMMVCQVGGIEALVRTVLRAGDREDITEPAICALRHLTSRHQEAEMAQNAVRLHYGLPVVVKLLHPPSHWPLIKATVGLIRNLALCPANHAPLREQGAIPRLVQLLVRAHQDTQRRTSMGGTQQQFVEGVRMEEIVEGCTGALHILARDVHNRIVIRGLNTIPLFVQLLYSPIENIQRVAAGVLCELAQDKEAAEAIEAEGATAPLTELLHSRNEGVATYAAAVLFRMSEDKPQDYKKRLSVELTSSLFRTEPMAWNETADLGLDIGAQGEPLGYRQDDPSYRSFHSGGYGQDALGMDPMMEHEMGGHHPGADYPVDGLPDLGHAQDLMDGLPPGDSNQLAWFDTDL

T2: full-length beta-catenin (Axin site) (Homo sapiens, UniProt P35222)
T2 construct: 15 nM full-length beta-catenin, 20 nM FITC labeled peptide in buffer
T2 sequence (P35222 1-781): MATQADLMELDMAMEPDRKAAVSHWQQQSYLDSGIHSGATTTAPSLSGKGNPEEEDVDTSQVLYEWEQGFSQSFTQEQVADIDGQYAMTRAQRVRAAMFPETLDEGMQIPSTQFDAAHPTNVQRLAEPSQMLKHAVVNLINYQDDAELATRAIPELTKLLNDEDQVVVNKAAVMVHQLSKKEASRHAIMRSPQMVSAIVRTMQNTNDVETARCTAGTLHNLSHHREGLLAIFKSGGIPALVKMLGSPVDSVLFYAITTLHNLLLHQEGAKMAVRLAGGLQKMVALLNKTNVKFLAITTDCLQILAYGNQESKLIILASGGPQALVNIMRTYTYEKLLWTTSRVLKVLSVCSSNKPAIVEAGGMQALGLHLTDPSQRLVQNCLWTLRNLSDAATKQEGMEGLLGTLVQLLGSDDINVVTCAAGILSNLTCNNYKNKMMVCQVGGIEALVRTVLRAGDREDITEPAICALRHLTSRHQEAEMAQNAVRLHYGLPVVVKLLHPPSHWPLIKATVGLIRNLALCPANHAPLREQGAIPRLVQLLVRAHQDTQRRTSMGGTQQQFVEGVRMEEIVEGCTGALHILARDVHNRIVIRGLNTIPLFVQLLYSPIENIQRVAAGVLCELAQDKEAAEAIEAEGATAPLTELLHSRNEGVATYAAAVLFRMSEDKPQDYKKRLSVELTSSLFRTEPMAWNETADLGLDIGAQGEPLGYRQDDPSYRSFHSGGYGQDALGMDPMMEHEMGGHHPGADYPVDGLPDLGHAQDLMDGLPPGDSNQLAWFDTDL

T3: full-length beta-catenin (UniProt P35222 2-781, limits assumed)
T3 construct: mature; also called full-length ß-Catenin; β-catenin
T3 sequence (looked up): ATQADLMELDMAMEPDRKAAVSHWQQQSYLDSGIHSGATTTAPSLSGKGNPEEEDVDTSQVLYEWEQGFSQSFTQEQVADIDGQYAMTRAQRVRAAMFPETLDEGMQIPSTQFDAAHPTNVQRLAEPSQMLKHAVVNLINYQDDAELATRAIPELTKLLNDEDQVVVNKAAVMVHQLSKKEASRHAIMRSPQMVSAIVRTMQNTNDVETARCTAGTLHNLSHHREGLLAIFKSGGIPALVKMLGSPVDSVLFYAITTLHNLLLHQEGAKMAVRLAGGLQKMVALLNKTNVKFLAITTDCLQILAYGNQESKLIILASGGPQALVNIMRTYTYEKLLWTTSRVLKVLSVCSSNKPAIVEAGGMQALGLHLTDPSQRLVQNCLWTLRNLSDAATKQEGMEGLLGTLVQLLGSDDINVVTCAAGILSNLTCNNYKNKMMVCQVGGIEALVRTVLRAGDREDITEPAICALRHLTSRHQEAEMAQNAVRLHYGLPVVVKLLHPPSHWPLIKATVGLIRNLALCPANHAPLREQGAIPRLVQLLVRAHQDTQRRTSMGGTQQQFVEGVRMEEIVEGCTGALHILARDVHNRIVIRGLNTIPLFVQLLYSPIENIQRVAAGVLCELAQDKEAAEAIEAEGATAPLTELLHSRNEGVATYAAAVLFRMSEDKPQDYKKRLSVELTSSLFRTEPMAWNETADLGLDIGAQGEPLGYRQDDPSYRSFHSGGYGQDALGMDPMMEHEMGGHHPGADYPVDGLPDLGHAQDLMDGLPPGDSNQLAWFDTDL


Tests used:
[1] = biological target: T1, biotinylated beta-catenin; test: Surface Plasmon Resonance (Biacore); assay type: binding
Procedure: Additionally or alternatively, binding to beta-catenin may be measured by Surface Plasmon Resonance. In an exemplary assay, approximately 6 nmol dried peptide diluted in buffer (50 mM Tris pH 8.0, 300 mM NaCl, 2% glycerol, 0.5 mM TCEP, 0.5 mM EDTA, 0.005% Tween-20, 1 mg/mL CM Dextran, 0.02% w/v sodium azide) was assayed on a Biacore X100 using the Biacore Biotin CAPture Kit (GE Healthcare) and biotinylated beta-catenin. Results were analyzed using the Biacore X100 Evaluation Software. […] FPO217c (Isomer 2) bound to the armadillo domain of β-catenin with a Kd of 2 nM.

[2] = biological target: T2, full-length beta-catenin (Axin site); test: Competition fluorescence polarization assay (Axin site probe); assay type: binding
Summary of the method: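 Competition FP: 15 nM full-length β-catenin pre-incubated 5 min with 20 nM FITC-labelled stapled Axin-site peptide, then titrated peptide added (3-fold series from 5 μM) for 15 min in the dark. Buffer 50 mM Tris pH 8.0, 250 mM NaCl, 2% glycerol, 0.5 mM EDTA; duplicate reads.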

[3] = Solubility in DPBS (A280 of supernatant); assay type: physicochemical; settings: DPBS
Procedure: Suitable assays for assessing solubility are widely known in the art and can be utilized in accordance with the present disclosure. In some embodiments, in an exemplary protocol, dried peptide was reconstituted in DPBS (DPBS, 1×, cell culture grade, Sigma D8537) in triplicate, vortexed, sonicated and then centrifuged. Absorbance of the supernatant was measured at A280 (Nanodrop 2000) and the concentration was determined using the extinction coefficient for tryptophan. Exemplary solubility data are presented in, e.g., Table 2.

full-length beta-catenin [4] = biological target: T3, full-length beta-catenin; test: competition FP, grade of FP EC50 (+: 500-5000 nM)
Summary of the method: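 Compound 3-fold serially diluted from 5 µM in Tris pH 8.0, 250 mM NaCl buffer, added to premixed 15 nM full-length β-catenin and 20 nM FITC-labelled stapled axin-site peptide probe. Incubated 15 min in the dark, polarization read in duplicate.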

full-length beta-catenin [5] = biological target: T3, full-length beta-catenin; test: competition FP; amino staple (cyclic)
Procedure: In some embodiments, a competition fluorescence polarization assay is used to assess binding of provided compounds to beta-catenin. In an exemplary procedure, solutions of provided compounds, e.g., provided stapled peptides, were prepared in a buffer (e.g., 50 mM Tris pH 8.0, 250 mM NaCl, 2% glycerol, 0.5 mM EDTA, 0.02% w/v sodium azide) using a 3-fold serial dilution from 5 µM. Probe solution (15 nM full-length ß-Catenin, 20 nM FITC labeled peptide in buffer) was prepared and incubated for a period of time, e.g., 5 minutes, and the a volume, e.g., 40 µL per well plated in suitable plate, e.g., a black polystyrene 384-well plate (Corning). Equal volume of the serial diluted peptide was added to the plate and incubated protected from light for 15 minutes prior to read. Reads were performed on a Spectramax M5 (Molecular Devices) in duplicate. Suitable probe was FITC-PEG1-PQ-S5-ILD-S5-HVRRVWR (SEQ ID NO: 1) (hydrocarbon staple formed by two S5 via olefin metathesis) and/or FITC-bA-PQ-S5-ILD-S5-HVRRVWR (SEQ ID NO: 3) (hydrocarbon staple formed by two S5 via olefin metathesis). […] Another peptide, FPO217c (Ac-AR_8ILDAHIM$B5$RVW (SEQ ID NO: 280), with N-terminal proline removed and valine replaced with isoleucine compared to FP0025c) was prepared.

[6] = competition fluorescence polarization, Table 2, read-out: in vitro FP EC50

EC50 [2, 6] [nM]	Kd ([1]; Table 2, read-out: Kd by SPR) [nM]	Molecule	further results
< 100	–	CC[C@H](C)[C@@H]1NC(=O)[C@](C)(NC(=O)[C@H](C)NC(=O)[C@@H]2CCCN2C(C)=O)CCCCCCC=CCOC(=O)N2CC[C@@](C(=O)N[C@@H](CCCNC(=N)N)C(=O)N[C@H](C(=O)N[C@@H](Cc3c[nH]c4ccccc34)C(N)=O)C(C)C)(C2)NC(=O)[C@H](C(C)C)NC(=O)[C@H](Cc2c[nH]cn2)NC(=O)[C@H](C)NC(=O)[C@H](CC(=O)O)NC(=O)[C@H](CC(C)C)NC1=O [FP0025c, Ac-P-A-R8-I-L-D-A-H-V-MB-R-V-W-NH2]	Kd ([1]; Biacore, biotinylated beta-catenin, read-out: Kd): 15 nM; EC50 ([2]; competition with FITC labeled Axin-site probe, 15 nM full-length beta-catenin, read-out: FP EC50): < 100 nM
100 to 500	3	CC[C@H](C)[C@@H]1NC(=O)[C@H](Cc2c[nH]cn2)NC(=O)[C@H](C)NC(=O)[C@H](CC(=O)O)NC(=O)[C@H](CC(C)C)NC(=O)[C@H]([C@@H](C)CC)NC(=O)[C@](C)(NC(=O)[C@H](C)NC(C)=O)CCCCCCC=CCOC(=O)N(C)C[C@@](C)(C(=O)N[C@@H](CCCNC(=N)N)C(=O)N[C@H](C(=O)N[C@@H](Cc2c[nH]c3ccccc23)C(N)=O)C(C)C)NC1=O [FP0338c, Ac-A-R8-I-L-D-A-H-I-MD-R-V-W-NH2]	–
< 100	3	CC[C@H](C)[C@@H]1NC(=O)[C@H](Cc2c[nH]cn2)NC(=O)[C@H](C)NC(=O)[C@H](CC(=O)O)NC(=O)[C@H](CC(C)C)NC(=O)[C@H]([C@@H](C)CC)NC(=O)[C@](C)(NC(=O)[C@H](C)NC(C)=O)CCC=CCOC(=O)N(C)CCC[C@@](C)(C(=O)N[C@@H](CCCNC(=N)N)C(=O)N[C@H](C(=O)N[C@@H](Cc2c[nH]c3ccccc23)C(N)=O)C(C)C)NC1=O [FP0509c, Ac-A-R4-I-L-D-A-H-I-MH-R-V-W-NH2]	Kd ([1]; Table 3 Part A, read-out: Binding Kd): 3 nM; solubility ([3]; Table 2, read-out: Solubility): 32 µM (≈ 49.9 µg/mL); solubility ([3]; Table 3 Part A, read-out: Solubility in DPBS): 42 µM (≈ 65.4 µg/mL)
100 to 500	14	CC[C@H](C)[C@@H]1NC(=O)[C@@](C)(NC(=O)[C@H](CCC(N)=O)NC(=O)[C@@H]2CCCN2C(C)=O)CCCC=CCCC[C@@](C)(C(=O)N[C@@H](Cc2c[nH]cn2)C(=O)N[C@H](C(=O)N[C@@H](CCCNC(=N)N)C(=O)N[C@@H](CCCNC(=N)N)C(=O)N[C@H](C(=O)N[C@@H](Cc2c[nH]c3ccccc23)C(=O)N[C@@H](CCCNC(=N)N)C(N)=O)C(C)C)C(C)C)NC(=O)[C@H](CC(=O)O)NC(=O)[C@H](CC(C)C)NC1=O [FP0787s, Ac-P-Q-S5-I-L-D-S5-H-V-R-R-V-W-R-NH2]	–
–	–	Ac-PQ[MA]ILD[R6]HVRRVWR-NH2 (staple 3-7; also: amino staple: CO2 extruded from MA carbamate staple with Pd(PPh3)4, also called FP-0725 (amino staple)) [FP0725a]	FP EC50 (full-length beta-catenin [4]): 500 to 5000 nM; EC50 (full-length beta-catenin [5]): 580 nM
